In US8680052B1, “Methods of treating, reducing the incidence of, and/or preventing ischemic events” (The Medicines Company, priority 2013, dated 2014):
Like-named read-outs stand apart in the source and are kept apart here.

Columns and labels:
[1] = system: patients with atherosclerosis undergoing PCI
Protocol: The protocol called for aspirin (75 to 325 mg) to be administered to all patients. […] The choice of a periprocedural anticoagulant (bivalirudin, unfractionated heparin, low-molecular-weight heparin, or fondaparinux) was also at the discretion of the investigator. Glycoprotein IIb/IIIa inhibitors were allowed only as rescue therapy during PCI to treat new or persistent thrombus formation, slow or no reflow, side-branch compromise, dissection, or distal embolization. The investigator at the site determined the protocol for management of the arterial sheath.
The inclusion criteria for the trial were men or nonpregnant women, 18 years of age or older with coronary atherosclerosis who required PCI for stable angina, a non-ST-segment elevation acute coronary syndrome, or ST-segment elevation myocardial infarction (STEMI). Patients were required to provide written informed consent.
Major exclusion criteria were receipt of a P2Y12 inhibitor or abciximab at any time in the 7 days before randomization and receipt of eptifibatide or tirofiban or fibrinolytic therapy in the 12 hours before randomization.
The primary efficacy end point was the composite rate of death from any cause, myocardial infarction, IDR, or stent thrombosis in the 48 hours after randomization in the modified intention-to-treat population (which comprised patients who actually underwent PCI and received the study drug). […] The key secondary end point was the incidence of stent thrombosis at 48 hours. This end point included definite stent thrombosis, defined according to the criteria of the Academic Research Consortium, or intraprocedural stent thrombosis, which was assessed, with group assignments concealed, at an angiographic core laboratory (Cardiovascular Research Foundation). Intraprocedural stent thrombosis was defined as any new or worsened thrombus related to the stent procedure that was confirmed angiographically. Events of death, myocardial infarction, IDR, and stent thrombosis that occurred during the first 30 days after randomization were adjudicated by the clinical events committee at the Duke Clinical Research Institute. The study adhered to the universal definition of myocardial infarction for myocardial infarction unrelated to PCI but expanded on the definition of PCI-related myocardial infarction.
The numbers and percentages of patients within each analysis population (modified intention-to-treat, intention-to-treat, and safety) were summarized according to treatment group. The primary efficacy analysis of the rate of the composite end point of death from any cause, myocardial infarction, IDR, or stent thrombosis (with all events adjudicated by the clinical events committee) in the 48 hours after randomization was conducted in the modified intention-to-treat population. The primary safety analysis was conducted in the safety population, which comprised all patients who underwent randomization and received at least one dose of the study drug; patients were classified according to the actual treatment received. All calculations and statistical analyses were performed with the use of SAS software, version 9.2.

P2Y12 receptor = target: T1, P2Y12 receptor (Homo sapiens, UniProt Q9H244); assay: Example 4: VerifyNow P2Y12 assay, platelet reactivity in PRU; type: in vivo
T1 construct: from tissue; host or cells: platelets in whole blood of patients
Protocol: The study involved 12 patients who met the criteria of being 18-75 years of age, having coronary artery disease (CAD) documented by a previous MI or coronary revascularization, and taking 81 mg of aspirin daily. […] Use of non-steroidal anti-inflammatory agents was discouraged during study participation but not prohibited.
Each patient was administered a 30 μg/kg bolus of cangrelor followed immediately by a 2 hr infusion at a rate of 4.0 μg/kg/min. A loading dose of ticagrelor (180 mg) was given after 0.5 hr or 1.25 hr (n=6 for each). Blood for pharmacodynamic platelet function studies was taken after 0.5 or 1.25 hr (corresponding to the time of ticagrelor load, n=6 for each), and then at 1.75, 2, 2.25, 2.5, 2.75, 3, 4, and 5.25 hr. Patients were assigned randomly to receive either 6 (n=6) or 7 (n=6) doses of ticagrelor to be taken every 12 hours following the discontinuation of the infusion of cangrelor. On study day 5, each patient was administered a 30 μg/kg bolus of cangrelor followed immediately by a 2 hr infusion at a rate of 4.0 μg/kg/min. Blood for pharmacodynamic assessment was taken after 1 and 2 hr. Adverse events were queried throughout study participation that ended with a telephone interview performed on study day 10-12.
Pharmacodynamic assessment included light transmission aggregometry (LTA), VerifyNow® P2Y12 assay, vasodilator-stimulated phosphoprotein (VASP) index, and platelet activation measured with the use of flow cytometry. Assessment of LTA, VerifyNow®, and platelet activation with the use of flow cytometry was performed within 30 min of blood being taken. In the case of flow cytometry, samples were processed to fixation and then batched for analysis. For VASP, index samples were batched and processed as recommended by the vendor within 2 h of blood being taken. This approach limited the time from fixation of VASP index to flow analysis to less than 1 h.
LTA induced by 5 μM and 20 μM adenosine diphosphate (ADP) was quantified ex vivo (i.e. in non-adjusted platelet rich plasma). Platelet-poor plasma was set as 100% aggregation, and both maximal (peak) and terminal (at 300 s) aggregation were measured with a PAP4 aggregometer (BioData, Horsham, Pa.). VerifyNow® P2Y12 assay (Accumetrics Inc, San Diego, Calif.) that measures the effects of drugs on the P2Y12 receptor by activating platelets with prostaglandin El in addition to ADP was used in accordance with the instructions provided by the manufacturer. Platelet reactivity was expressed in P2Y12 reaction units (PRU). Activation of platelets was identified with the use of flow cytometry as previously described.^17. And to determine the VASP index, a commercially available kit (Diagnostica Stago, Inc, Parsippany NJ) was used. ^17 Schneider D J, Sobel B E. Streamlining the design of promising clinical trials: in-vitro testing of antithrombotic regimens and multiple agonists of platelet activation. Coron Artery Dis. 2009; 20:175-8.

[2] = 48 hours, ITT, Cangrelor vs Clopidogrel
[3] = 48 hours, ITT, rate in parentheses
[4] = 48 hours, modified intention-to-treat, Cangrelor vs Clopidogrel
[5] = 30 days, cangrelor vs clopidogrel
[6] = 30 days, modified intention-to-treat population
[7] = 30 days, modified intention-to-treat, Cangrelor vs Clopidogrel
[8] = Study Day 1, 1.75 h, Ticagrelor at 0.5 hr
[9] = Study Day 1, 1.75 h, Ticagrelor at 1.25 hr
[10] = Study Day 1, 2.0 h, Ticagrelor at 0.5 hr
[11] = Study Day 1, 2.0 h, Ticagrelor at 1.25 hr
[12] = Study Day 1, reference 0.5/1.25 h, All
[13] = Study Day 1, reference 0.5/1.25 h, Ticagrelor at 0.5 hr
[14] = Study Day 1, reference 0.5/1.25 h, Ticagrelor at 1.25 hr
[15] = Study Day 5, 1.0 h, Ticagrelor 6 doses
[16] = Study Day 5, 1.0 h, Ticagrelor 7 doses
[17] = Study Day 5, 2.0 h, Ticagrelor 6 doses
[18] = Study Day 5, 2.0 h, Ticagrelor 7 doses

T1 sequence (Q9H244 whole entry): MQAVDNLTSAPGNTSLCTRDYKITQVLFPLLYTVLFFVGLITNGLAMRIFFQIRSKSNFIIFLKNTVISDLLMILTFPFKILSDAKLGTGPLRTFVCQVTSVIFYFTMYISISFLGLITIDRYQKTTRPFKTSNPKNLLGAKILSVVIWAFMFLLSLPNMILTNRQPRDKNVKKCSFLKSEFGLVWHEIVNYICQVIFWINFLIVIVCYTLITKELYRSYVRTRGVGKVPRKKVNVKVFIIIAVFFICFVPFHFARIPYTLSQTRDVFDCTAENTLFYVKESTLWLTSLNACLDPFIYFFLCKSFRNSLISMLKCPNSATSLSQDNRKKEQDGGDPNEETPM

CSCCNc1nc(SCCC(F)(F)F)nc2c1ncn2[C@@H]1O[C@H](COP(=O)(O)OP(=O)(O)C(Cl)(Cl)P(=O)(O)O)[C@@H](O)[C@H]1O [Cangrelor, cangrelor]
odds ratio, primary end point ([1]; 300-mg loading dose of clopidogrel): 0.84 | odds ratio, primary end point ([1]; 600-mg loading dose of clopidogrel): 0.77 | number needed to treat to prevent one primary end-point event ([1]; 48 hours): 84 | rate of stent thrombosis (key secondary efficacy end point) ([1]; 48 hours): 0.8% | Death OR [1, 2]: 0.95 | Death/MI OR [1, 2]: 0.80 | Death/MI/IDR OR [1, 2]: 0.80 | Death/MI/IDR/ST OR [1, 2]: 0.79 | Death/MI/IDR/ST/GUSTO Severe Bleeding (NACE) OR [1, 2]: 0.80 | Death/MI/ST OR [1, 2]: 0.79 | Death/Q-wave MI/IDR OR [1, 2]: 0.77 | Death/ST OR [1, 2]: 0.67 | IDR OR [1, 2]: 0.76 | MI OR [1, 2]: 0.80 | Q-wave MI OR [1, 2]: 0.61 | Stent thrombosis OR [1, 2]: 0.62 | Death ([1]; 48 hours, ITT, n/N): 20/5573 | Death/MI ([1]; 48 hours, ITT, n/N): 222/5573 | Death/MI/IDR ([1]; 48 hours, ITT, n/N): 233/5573 | Death/MI/IDR/ST ([1]; 48 hours, ITT, n/N): 260/5573 | Death/MI/IDR/ST/GUSTO Severe Bleeding (Net Adverse Clinical Events, NACE) ([1]; 48 hours, ITT, n/N): 267/5573 | Death/MI/ST ([1]; 48 hours, ITT, n/N): 251/5573 | Death/Q-wave MI/IDR ([1]; 48 hours, ITT, n/N): 52/5573 | Death/ST ([1]; 48 hours, ITT, n/N): 61/5573 | IDR ([1]; 48 hours, ITT, n/N): 29/5573 | MI ([1]; 48 hours, ITT, n/N): 207/5573 | Q-wave MI ([1]; 48 hours, ITT, n/N): 11/5573 | Stent thrombosis ([1]; 48 hours, ITT, n/N): 46/5573 | Death [1, 3]: (0.4) | Death/MI [1, 3]: (4.0) | Death/MI/IDR [1, 3]: (4.2) | Death/MI/IDR/ST [1, 3]: (4.7) | Death/MI/IDR/ST/GUSTO Severe Bleeding (Net Adverse Clinical Events, NACE) [1, 3]: (4.8) | Death/MI/ST [1, 3]: (4.5) | Death/Q-wave MI/IDR [1, 3]: (0.9) | Death/ST [1, 3]: (1.1) | IDR [1, 3]: (0.5) | MI [1, 3]: (3.7) | Q-wave MI [1, 3]: (0.2) | Stent thrombosis [1, 3]: (0.8) | odds ratio, stent thrombosis ([1]; 48 hours, cangrelor vs clopidogrel): 0.62 | odds ratio, primary composite efficacy end point ([1]; 48 hours, crude analysis, cangrelor vs clopidogrel): 0.79 | odds ratio, primary composite efficacy end point ([1]; 48 hours, logistic regression adjusted for baseline status and clopidogrel loading dose, cangrelor vs clopidogrel): 0.78 | rate of primary composite efficacy end point (death from any cause, myocardial infarction, IDR, or stent thrombosis) ([1]; 48 hours, modified intention-to-treat): 4.7% | Death from any cause, Odds Ratio (95% CI) [1, 4]: 1.00 (0.52-1.92) | Death from cardiovascular causes, Odds Ratio (95% CI) [1, 4]: 1.00 (0.52-1.92) | Death or stent thrombosis, Odds Ratio (95% CI) [1, 4]: 0.67 (0.48-0.94) | Death, Q-wave myocardial infarction, or ischemia-driven revascularization, Odds Ratio (95% CI) [1, 4]: 0.76 (0.53-1.11) | Death/MI OR (95% CI) [1, 4]: 0.80 (0.67, 0.96) | Death/MI/Definite ST OR (95% CI) [1, 4]: 0.80 (0.66, 0.95) | Death/MI/IDR OR (95% CI) [1, 4]: 0.80 (0.67, 0.95) | Death/MI/IDR/Definite ST OR (95% CI) [1, 4]: 0.80 (0.67, 0.95) | Death/MI/ST OR (95% CI) [1, 4]: 0.79 (0.66, 0.94) | Definite ST OR (95% CI) [1, 4]: 0.54 (0.27, 1.10) | Ischemia-driven revascularization, Odds Ratio (95% CI) [1, 4]: 0.74 (0.45-1.20) | Key secondary end point: stent thrombosis, Odds Ratio (95% CI) [1, 4]: 0.62 (0.43-0.90) | Myocardial infarction, Odds Ratio (95% CI) [1, 4]: 0.80 (0.67-0.97) | Net adverse clinical events, Odds Ratio (95% CI) [1, 4]: 0.80 (0.68-0.94) | Q-wave myocardial infarction, Odds Ratio (95% CI) [1, 4]: 0.61 (0.29-1.29) | Primary end point: death from any cause, myocardial infarction, ischemia-driven revascularization, or stent thrombosis, Odds Ratio (95% CI) ([1]; 48 hours, modified intention-to-treat, Cangrelor vs Clopidogrel, logistic regression adjusted for baseline status and clopidogrel loading dose): 0.78 (0.66-0.93) | net rate of adverse clinical events (primary efficacy plus primary safety end point) ([1]; 48 hours, post hoc): 4.8% | odds ratio, net adverse clinical events ([1]; 48 hours, post hoc, cangrelor vs clopidogrel): 0.80 | Stent thrombosis ([1]; 30 days): 1.3% | rate of the composite efficacy end point ([1]; 30 days): 6.0% | odds ratio, composite efficacy end point [1, 5]: 0.85 | odds ratio, stent thrombosis [1, 5]: 0.68 | Death from any cause [1, 6]: (1.1) percent | Death from any cause, myocardial infarction, ischemia-driven revascularization, or stent thrombosis [1, 6]: (6.0) percent | Death from cardiovascular causes [1, 6]: (0.9) percent | Death from any cause, Odds Ratio [1, 7]: 1.09 | Death from cardiovascular causes, Odds Ratio [1, 7]: 1.04 | Ischemia-driven revascularization, Odds Ratio [1, 7]: 0.85 | Myocardial infarction, Odds Ratio [1, 7]: 0.82 | Q-wave myocardial infarction, Odds Ratio [1, 7]: 0.63 | Stent thrombosis, Odds Ratio [1, 7]: 0.68 | Death from any cause, myocardial infarction, ischemia-driven revascularization, or stent thrombosis, Odds Ratio ([1]; 30 days, modified intention-to-treat, Cangrelor vs Clopidogrel, adjusted logistic regression): 0.85 | odds ratio, intraprocedural stent thrombosis ([1]; cangrelor vs clopidogrel): 0.65 | odds ratio, procedural complications ([1]; cangrelor vs clopidogrel): 0.74 | odds ratio, rescue therapy with a glycoprotein IIb/IIIa inhibitor ([1]; cangrelor vs clopidogrel): 0.65 | odds of an ischemic event lower than with clopidogrel ([1]; in vivo): 22% | odds of stent thrombosis lower than with clopidogrel ([1]; in vivo): 38% | rate of intraprocedural stent thrombosis ([1]; in vivo): 0.6% | rate of procedural complications ([1]; in vivo): 3.4% | use of rescue therapy with a glycoprotein IIb/IIIa inhibitor ([1]; in vivo): 2.3% | odds ratio, primary end point ([1]; infusion for 129 minutes or less): 0.85 | odds ratio, primary end point ([1]; infusion for more than 129 minutes): 0.72 | odds ratio, primary end point ([1]; patients who received the loading dose during or after PCI): 0.79 | odds ratio, primary end point ([1]; patients who received the loading dose immediately before PCI): 0.80 | VerifyNow IPR (P2Y12 receptor; Study Day 1, 1.75 h, All): 99 ± 1 | VerifyNow PRU (P2Y12 receptor; Study Day 1, 1.75 h, All): 3.8 ± 2.6 PRU | VerifyNow IPR (P2Y12 receptor; [8]): 99 ± 1 | VerifyNow PRU (P2Y12 receptor; [8]): 3.8 ± 2.6 PRU | VerifyNow IPR (P2Y12 receptor; [9]): 99 ± 1 | VerifyNow PRU (P2Y12 receptor; [9]): 3.7 ± 2.8 PRU | VerifyNow IPR (P2Y12 receptor; Study Day 1, 2.0 h, All): 98 ± 3 | VerifyNow PRU (P2Y12 receptor; Study Day 1, 2.0 h, All): 6.4 ± 7.5 PRU | VerifyNow IPR (P2Y12 receptor; [10]): 97 ± 2 | VerifyNow PRU (P2Y12 receptor; [10]): 6.9 ± 4.9 PRU | VerifyNow IPR (P2Y12 receptor; [11]): 98 ± 4 | VerifyNow PRU (P2Y12 receptor; [11]): 5.9 ± 9.9 PRU | VerifyNow IPR (P2Y12 receptor; [12]): 97 ± 3 | VerifyNow PRU (P2Y12 receptor; [12]): 7.3 ± 9.3 PRU | VerifyNow IPR (P2Y12 receptor; [13]): 97 ± 4 | VerifyNow PRU (P2Y12 receptor; [13]): 8.8 ± 12 PRU | VerifyNow IPR (P2Y12 receptor; [14]): 98 ± 3 | VerifyNow PRU (P2Y12 receptor; [14]): 5.8 ± 7.3 PRU | VerifyNow IPR (P2Y12 receptor; Study Day 5, 1.0 h, All): 99 ± 1 | VerifyNow PRU (P2Y12 receptor; Study Day 5, 1.0 h, All): 3.3 ± 2 PRU | VerifyNow IPR (P2Y12 receptor; [15]): 99 ± 1 | VerifyNow PRU (P2Y12 receptor; [15]): 2.8 ± 1.9 PRU | VerifyNow IPR (P2Y12 receptor; [16]): 98 ± 1 | VerifyNow PRU (P2Y12 receptor; [16]): 3.9 ± 2.1 PRU | VerifyNow IPR (P2Y12 receptor; Study Day 5, 2.0 h, All): 98 ± 3 | VerifyNow PRU (P2Y12 receptor; Study Day 5, 2.0 h, All): 4.5 ± 6.4 PRU | VerifyNow IPR (P2Y12 receptor; [17]): 99 ± 1 | VerifyNow PRU (P2Y12 receptor; [17]): 2.4 ± 1.9 PRU | VerifyNow IPR (P2Y12 receptor; [18]): 97 ± 3 | VerifyNow PRU (P2Y12 receptor; [18]): 6.5 ± 8.8 PRU
